According to patent US20240148720A1, “Use of Histamine Antagonists and Glucocorticoid for Treating and Preventing Neurodegenerative Diseases” (City University of Hong Kong, priority 2022, published 2024):
Structures can show the parent of a compound that is named as a salt.

Columns and labels:
[1] = cited from earlier work
APP/PS1 mice [2] = test: Morris Water Maze test, APP/PS1 mice; settings: 8-month-old APP/PS1 mice; for escape latency to find the hidden platform: FIG. 6C
hyperphosphorylated Tau = test: Anti-AT8 immunostaining of hyperphosphorylated Tau in hippocampus of 3xTg-AD mice; settings: 17-month-old 3xTg-AD mice
APP/PS1 mice [3] = test: Y-maze test, APP/PS1 mice; settings: 8-month-old APP/PS1 mice
histamine H4 receptor = histamine H4 receptor (Homo sapiens, UniProt Q9H3N8); settings: cited from earlier work
STZ-treated mice [4] = test: Barnes maze test, streptozocin-induced sporadic AD mouse model; settings: STZ ICV mice, VUF6002 2.5 mg/kg i.p. 21 days
microglia = test: Anti-IBA-1 immunostaining of microglia in hippocampal CA1 of 3xTg-AD mice; settings: 17-month-old 3xTg-AD mice
APP/PS1 mice [5] = test: Novel object recognition test, APP/PS1 mice; settings: 8-month-old APP/PS1 mice; VUF6002 2.5 mg/kg i.p. daily 1 month; vs vehicle; FIG. 2C
[6] = rats; 100 mg/kg; cited from earlier work
3xTg-AD mice [7] = test: Novel object recognition test, 3xTg-AD mice; settings: 17-month-old 3xTg-AD mice; VUF6002 2.5 mg/kg daily about 3 months; FIG. 3C
3xTg-AD mice [8] = test: Y-maze test, 3xTg-AD mice; settings: 17-month-old 3xTg-AD mice; VUF6002 2.5 mg/kg daily about 3 months; FIG. 3B
3xTg-AD mice [9] = test: Barnes maze test, 3xTg-AD mice; settings: 17-month-old 3xTg-AD mice, VUF6002 2.5 mg/kg daily about 3 months
[10] = cited from earlier work; remark: listed apart in the source
STZ-treated mice [11] = test: Y-maze spontaneous alternation test, streptozocin-induced sporadic AD mouse model; settings: STZ ICV mice; VUF6002 2.5 mg/kg i.p. daily for 21 days; FIG. 1B

histamine H4 receptor, sequence (Q9H3N8 whole entry, species assumed): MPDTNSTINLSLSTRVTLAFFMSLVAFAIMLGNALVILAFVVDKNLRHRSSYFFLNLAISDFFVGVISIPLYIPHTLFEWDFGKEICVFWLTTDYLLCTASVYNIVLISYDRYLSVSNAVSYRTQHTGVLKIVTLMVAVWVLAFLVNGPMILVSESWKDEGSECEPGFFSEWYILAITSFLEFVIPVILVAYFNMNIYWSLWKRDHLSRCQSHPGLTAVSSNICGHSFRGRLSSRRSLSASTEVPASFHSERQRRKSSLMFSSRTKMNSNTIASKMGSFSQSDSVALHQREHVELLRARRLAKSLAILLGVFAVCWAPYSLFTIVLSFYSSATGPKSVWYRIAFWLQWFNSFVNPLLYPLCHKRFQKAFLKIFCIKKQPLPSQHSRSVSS

SMILES: CC(C)c1cc(N2CC[C@@H](N)C2)nc(N)n1 [JNJ39758979]
- severe side effects in humans [1]: may induces agranulocytosis in humans

SMILES: C[C@@H]1C[C@H]2[C@@H]3CCC4=CC(=O)C=C[C@]4(C)[C@@]3(F)[C@@H](O)C[C@]2(C)[C@@]1(O)C(=O)CO [dexamethasone, (11β,16α)-9-Fluoro-11,17,21-trihydroxy-16-methylpregna-1,4-diene-3,20-dione]
- escape latency to find the hidden platform (APP/PS1 mice [2]; dexamethasone 1 mg/kg i.p. one month, vs vehicle): does not significantly reduce the latency
- escape latency to find the hidden platform (APP/PS1 mice [2]; dexamethasone 1 mg/kg i.p. two months): reverses the long-term memory deficits
- number of platform crosses, probe test (APP/PS1 mice [2]; dexamethasone 1 mg/kg i.p. two months, vs vehicle, FIG. 6D): conspicuously increased number of platform crosses
- time spent in the target quadrant, probe test (APP/PS1 mice [2]; dexamethasone 1 mg/kg i.p. two months, vs vehicle, FIG. 6E): conspicuously increased
- reduction of phosphorylated Tau (AT8) intensity, hippocampal subiculum area (hyperphosphorylated Tau; dexamethasone from 14- to 17-month-old, FIG. 7C-7D): 53.3%
- spontaneous alternation rate (short-term spatial working memory) (APP/PS1 mice [3]; dexamethasone 1 mg/kg i.p. two months, FIG. 6A): prominently improves the short-term memory deficits

SMILES: S=C(NC1CCCCC1)N1CCC(c2cnc[nH]2)CC1 [Thioperamide]
- binding to histamine receptors (histamine H4 receptor): can bind to histamine H3 and H4 receptors

SMILES: CN1CCN2c3ccccc3Cc3ccccc3C2C1 (stereo not shown) [Mianserin]
- binding to histamine receptors (histamine H4 receptor): can bind to histamine H1, H3, and H4 receptors

SMILES: CN1CCN(C(=O)c2nc3cc(Cl)ccc3[nH]2)CC1 [VUF6002, 1-[(5-chloro-1H-benzimidazol-2-yl)carbonyl]-4-methylpiperazine maleate]
- error to find the target hole, probe trial (STZ-treated mice [4]; FIG. 1E): reduces the error to find the target hole
- time spent in target quadrant, probe trial (STZ-treated mice [4]; FIG. 1F): markedly increases the time spent in target quadrant
- latency to get into the hidden escape box (long-term spatial memory) (STZ-treated mice [4]; day 25 post injection, FIG. 1D): completely reverses the STZ-induced long-term memory deficits
- long-term spatial memory during the training phase (APP/PS1 mice [2]; VUF6002 2.5 mg/kg i.p. daily 1 month, FIG. 2D): markedly improved
- number of platform crosses, probe test (APP/PS1 mice [2]; VUF6002 2.5 mg/kg i.p. daily 1 month, vs vehicle, FIG. 2E): make more attempts to swim across the original location of the platform
- time spent in the target quadrant, probe test (APP/PS1 mice [2]; VUF6002 2.5 mg/kg i.p. daily 1 month, vs vehicle, FIG. 2F): spend more time on searching the platform in the target quadrant
- intensity of Iba-1-positive microglia, hippocampal CA1 region (microglia; VUF6002 2.5 mg/kg 3 months, FIG. 5A): markedly reduces the intensity of Iba-1-positive
- density of microglia, hippocampal CA1 region (microglia; VUF6002 2.5 mg/kg, FIG. 5B): significantly reduces the density of microglia
- recognition index (APP/PS1 mice [5]): significantly elevates
- mean intensity of AT8 (p-Tau), CA1 region of hippocampus (hyperphosphorylated Tau; VUF6002 2.5 mg/kg 3 months, FIG. 4C-4D): markedly reduces the mean intensity of AT8
- anti-inflammation effect [6]: revealed an anti-inflammation effect
- short-term memory, performance on novel object recognition test (3xTg-AD mice [7]): completely reverse the memory deficit
- short-term memory, performance on Y-maze (3xTg-AD mice [8]): completely reverse the memory deficit
- performance during the training phase of Barnes Maze test (3xTg-AD mice [9]; FIG. 3D): marked improvement
- primary errors to find the target hole, probe test (3xTg-AD mice [9]; vs vehicle, FIG. 3E): make fewer errors to find the target hole
- time spent in the target quadrant, probe test (3xTg-AD mice [9]; vs vehicle, FIG. 3F): spend more time in the target quadrant
- severe side effect on animal models [10]: has not been reported to have a severe side effect
- spontaneous alternation rate (short-term spatial working memory) (STZ-treated mice [11]): completely reversed
- spontaneous alternation rate (APP/PS1 mice [3]; VUF6002 2.5 mg/kg i.p. daily 1 month, vs vehicle, FIG. 2B): significantly elevates
